In patent US9422318B2, “Epoxyeicosatrienoic acid analogs and methods of making and using the same” (THE MEDICAL COLLEGE OF WISCONSIN, INC., priority 2011, dated 2016):
Where two headings read alike, the source gives them in different places.

Tests used:
bovine coronary artery = experiment: Vasorelaxant activity in bovine coronary artery rings; conditions: for Vascular Relax. % (10 μM): rings precontracted with U-46619, 100% relaxation = basal pre-U-46619 tension; for EC50: Bos taurus, bovine coronary artery rings precontracted with U-46619, read-out: Vascular Relax. EC50
Method: Vasorelaxant activity was measured in bovine coronary artery. Bovine hearts were obtained and the left anterior descending coronary artery was dissected and cleaned of connective tissue. Vessels of 1 mm diameter were cut into rings of 3 mm width as previously described (3, 27, 39). […] The vessels were suspended from a pair of stainless steel hooks in a 6-ml water jacketed organ chamber. […] One hook was anchored to a steel rod and the other hook to a force transducer (model FT-03C; Grass Instruments, West Warwick, R.I.). Tension of the vessel was measured by an ETH-400 bridge amplifier, and the data were acquired with a MacLab 8e analog-to-digital converter and MacLab software version 3.5.6 (AD Instruments, Milford, Mass.) and stored on a Macintosh computer for subsequent data analysis.
Basal tension was set at the length-tension maximum of 3.5 g and equilibrated for 1.5 h. KCl (40 mM) was added to the chamber until reproducible maximal contractions were maintained. […] Cumulative additions of compounds were added to the chamber. Between concentration-response curves, the chambers were rinsed with fresh Krebs buffer, 40 mM KCl was administered to determine the maximum contraction, and the vessels were rinsed. Consecutive concentration-response curves were performed with 14,15-EET followed by a concentration-response curve to a compound. The experiment was always repeated with the order of the agonists reversed. […] The relaxation was plotted versus compound concentration and the EC50 determined utilizing statistical software.

Human recombinant sEH = Human recombinant sEH (Homo sapiens (Human), UniProt P34913); experiment: Soluble epoxide hydrolase inhibition (PHOME fluorescent substrate); format: biochemical
Method: Compounds were tested for their ability to inhibit recombinant soluble epoxide hydrolase (sEH) protein. The assay utilizes (3-Phhenyl-oxiranyl)-acetic acid cyano-(6-methoxy-naphthalen-2-yl)-methyl ester (PHOME), a sensitive substrate for sEH that can be used to monitor the activity of both human and murine enzymes. […] Human recombinant sEH was incubated with substrate and compounds ranging in concentration from 0.1 to 1000 nM.

[1] = tested on: Spontaneously Hypertensive Rats (SHR); experiment: Telemetry blood pressure and heart rate in spontaneously hypertensive rats; format: in vivo, rat
From the text: To accurately detect changes in blood pressure and heart rate, telemetry transmitters (Data Sciences Inc., St. Paul, Minn.) were implanted in rats one week prior to the experimental period according to manufacturer's specifications while under pentobarbital anesthesia. In brief, an incision was made to expose the femoral artery that was occluded to allow insertion of the transmitter catheter. The catheter was secured in place with tissue glue and the transmitter body was sutured in place and the incision line was closed. Rats were allowed to recover from surgery and were returned to individual housing. A baseline arterial pressure was recorded for prior to the experimental period. Mean arterial pressure was continuously recorded throughout the experimental period.
Telemetry transmitters were implanted into male SHR as described. After the surgical recovery period, baseline mean arterial pressure was recorded. In this series of experiments, EET analogs were administered by osmotic pump (2 mg/d, i.p.) and blood pressure was continuously monitored.

[2] = tested on: cisplatin-induced nephrotoxicity in Wistar-Kyoto (WKY) rats; experiment: Cisplatin-induced nephrotoxicity in rats; format: in vivo, rat
From the text: Experiments were approved and carried out according to the guidelines of the Institutional Animal Care and Use Committee, Medical College of Wisconsin, Milwaukee, USA. Male Wistar-Kyoto (WKY) rats weighing 180-200 g (Charles River, Mass., USA). All animals were kept in a temperature-controlled environment with a 12-h light/dark cycle and were allowed free access to food and water at all times. An acclimatization period of 6 days was allowed for the rats before experimentation. The rats were assigned into four groups. […] Rats received drinking water ad libitum for seven days and on day 7 DMSO (Sigma Aldrich, St. Louis, Mo., USA) was administered (300-500 μl i.p.). […] These rats are pretreated with the EET analog […].) for seven days in drinking water and then on day 7 administered CP as a single injection (7 mg/kg i.p.) followed by another five days treatment with EET-A. […] One day before the rats were sacrificed, urine of each rat was collected over a 24-h period, and the volume was measured. Five days after CP or DMSO administration, rats were anesthetized for blood sample collection followed by euthanasia and tissue collection. Urine and plasma samples were kept frozen at -80° C. until analyzed. The kidneys were removed, washed with physiological saline and stored at -80° C. until used for RT-PCR analysis, thiobarbituric acid reactive substance (TBARS) measurement and caspase 3 activity assay. […] The levels of blood urea nitrogen (BUN) (BioAssay Systems, Hayward, Calif., USA) and serum creatinine (Cayman Chemical Company, Ann Arbor, Mich., USA) were measured spectrophotometrically using commercial kits. Urinary content of creatinine and protein were measured using commercial kits (Cayman Chemical Company, Ann Arbor, Mich., USA), and the activity of urinary N-acetyl-b-glucosaminidase (NAG) in the urine was measured by a kit from Diazyme (Diazyme Laboratories, Poway, Calif., USA). While urine content of kidney injury molecule-1 (KIM-1) was measured using ELISA (R&D Systems, Inc. Minneapolis, Minn., USA). Malondialdehyde (MDA) is a thiobarbituric acid reactive substance (TBARS) that is formed as an end-product of lipid peroxidation and serves as an important index of oxidative stress. […] Using a commercially available kit (Cayman Chemical Company, Ann Arbor, Mich., USA), MDA was measured spectrophotometrically after reaction with thiobarbituric acid. […] Louis, Mo., USA). Kidney homogenate was prepared with a lysis Buffer (50 mM HEPES, pH 7.4, with 5 mM CHAPS and 5 mM DTT). […] The caspase 3 activity is expressed as nmol of AMC/min/μL. Real-Time analysis was carried out to assess the expression of oxidative (gp91phox, NOX1, SOD1, SOD2, SOD3), inflammatory (TNF-α, IL-6, apoptotic (Bax, Bak, Bcl-2) and endoplasmic reticulum stress (GRP78, caspase 12) related genes in the kidney. Total RNA was isolated from kidney homogenate using TRIzol LS reagents (Invitrogen Life Technologies, Carlsbad, Calif., USA) according to the manufacturer's instructions. The isolated RNA was treated with RNase-free DNase (Invitrogen, Carlsbad, Calif., USA) to remove traces of genomic DNA contamination. The mRNA samples were quantified by spectrophotometry at 260 nm and 1 μg of total RNA was reverse-transcribed to cDNA using iScriptTM Select cDNA Synthesis Kit (Bio-Rad, Hercules, Calif., USA). The target gene expression was quantified by iScript One-Step RT-PCR Kit with SYBR green using MyiQTM Single Color Real-Time PCR Detection System (Bio-Rad Laboratories, Hercules, Calif., USA). Each amplified sample in all wells was analyzed for homogeneity using dissociation curve analysis using iQ5 Optical System Software, Version 2.1 (Bio-Rad Laboratories, Hercules, Calif., USA). […] In analyzing the relative expression of the target genes, the Ct values were normalized to a housekeeping gene (pgk1). Statistical analyses were carried out for at least 5-7 experimental samples in each experimental group. Primers used in this study were designed based on several earlier reports. […]

[3] = human recombinant sEH, PHOME substrate, 0.1 to 1000 nM, read-out: sEHi IC50

Chain of Human recombinant sEH (P34913 whole entry): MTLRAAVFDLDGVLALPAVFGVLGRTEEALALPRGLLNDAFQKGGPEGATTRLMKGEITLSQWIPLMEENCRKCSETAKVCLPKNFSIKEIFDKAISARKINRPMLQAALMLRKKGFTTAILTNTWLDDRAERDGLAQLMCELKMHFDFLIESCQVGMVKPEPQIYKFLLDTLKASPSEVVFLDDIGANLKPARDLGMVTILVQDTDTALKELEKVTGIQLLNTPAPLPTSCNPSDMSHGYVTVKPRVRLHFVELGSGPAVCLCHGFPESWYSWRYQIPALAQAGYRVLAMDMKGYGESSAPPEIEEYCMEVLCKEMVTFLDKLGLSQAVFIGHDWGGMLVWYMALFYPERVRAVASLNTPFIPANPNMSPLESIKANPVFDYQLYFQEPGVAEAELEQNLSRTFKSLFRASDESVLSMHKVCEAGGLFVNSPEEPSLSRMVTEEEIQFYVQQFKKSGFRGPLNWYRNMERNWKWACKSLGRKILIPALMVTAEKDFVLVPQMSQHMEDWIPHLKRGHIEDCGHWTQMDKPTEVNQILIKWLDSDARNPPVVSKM

Structure (SMILES)	Vascular Relax. % (10 μM) (bovine coronary artery)	further results
CCCCCNC(=O)NCCCC/C=C\CCCCCCc1noc(=O)[nH]1 [Compound 23]	89%	
CCCCCNC(=O)NCCCC/C=C\CCCCCCC(=O)OCCOCCOCCO [Compound 2, 2-(2-(2-Hydroxyethoxyl)ethoxy)ethyl 13-(3-n-pentylureido)tridec-8(Z)-enoate]	72%	EC50 (bovine coronary artery): 5100 nM
CCCCCNC(=O)NCCCC/C=C\CCCCCCCc1nnn[nH]1 [Compound 22, 1-(13-(1H-Tetrazol-5-yl)tridec-5(Z)-enyl)-3-n-pentylurea]	110%	
CCCCNC(=O)C(=O)NCCCC/C=C\CCCCCCc1nnn[nH]1 [Compound 21]	96%	
CCCCCCC(=O)N(CCCC/C=C\CCCCCCC(=O)OCCOCCOCCO)C(C)C [Compound 1, 2-(2-(2-Hydroxyethoxyl)ethoxy)ethyl 13-(N-isopropylheptanamido)tridec-8(Z)-enoate]	86%	EC50 (bovine coronary artery): 2900 nM
CCCCNC(=O)C(=O)NCCCCCOc1cccc2sc(NC(C)=O)nc12 [Compound 32, N^1-(5-(2-Acetamidobenzo[d]thiazol-4-yloxy)pentyl)-N^2-n-butyloxalamide]	96%	IC50 (Human recombinant sEH; [3]): > 500 nM
CCCCCCC(=O)N(CCCC/C=C\CCCCCCC(=O)NCC(=O)O)C(C)C [Compound 5, 2-(13-(N-Isopropylheptanamido)tridec-8(Z)-enamido)acetic acid]	95%	IC50 (Human recombinant sEH; [3]): > 500 nM
CCCCCNC(=O)NCCCC/C=C\CCCCOCC(=O)O [Compound 4, 2-(10-(3-n-Pentylureido)dec-5(Z)-enyloxy)acetic acid]	49%	
CCCCCN(C)C(=O)N(C)CCCC/C=C\CCCCCCC(=O)NCC(=O)O [Compound 6, 2-(13-(1,3-Dimethyl-3-n-pentylureido)tridec-8(Z)-enamido)acetic acid]	92%	
CCCCCNC(=O)NCCCC/C=C\CCCCCCc1noc(=S)[nH]1 [Compound 28]	93%	
CCCCCNC(=O)NCCCC/C=C\CCCCCCc1nsc(=O)[nH]1 [Compound 29]	54%	
CCCCCNC(=O)NCCCC/C=C\CCCCCCC(=O)NS(C)(=O)=O [Compound 9, N-(Methylsulfonyl)-13-(3-n-pentylureido)tridec-8(Z)-enamide]	61%	
CCCCCCC(=O)N(CCCC/C=C\CCCCCCc1nnn[nH]1)C(C)C [Compound 19]	74%	IC50 (Human recombinant sEH; [3]): > 500 nM
CCCCCNC(=O)NCCCC/C=C\CCCCCCP(=O)([O-])[O-].[Na+].[Na+] [Compound 10]	71%	
CCCCCCC(=O)N(CCCCCOc1cccc2sc(NC(C)=O)nc12)C(C)C [Compound 30, N-(5-(2-Acetamidobenzo[d]thiazol-4-yloxy)pentyl)-N-isopropylheptanamide]	96%	IC50 (Human recombinant sEH; read-out: SEHi activity IC50): > 500 nM; IC50 (Human recombinant sEH; read-out: sEHi IC50): > 500 nM; start of blood pressure lowering ([1]; effect maintained until end of two-week treatment): within four days
CCCCNC(=O)C(=O)NCCCC/C=C\CCCCCCC(=O)OCCOCCOCCO [Compound 3, 2-(2-(2-Hydroxyethoxyl)ethoxy)ethyl13-(2-(n-butylamino)-2 oxoacetamido)tridec-8(Z)-enoate]	104%	EC50 (bovine coronary artery): 1500 nM
CCCCCNC(=O)NCCCC/C=C\CCCCCCc1nnn[nH]1 [Compound 20]		heart rate ([1]; 2 mg/d i.p., vehicle 331±17.0): 325±11.0 BPM
CCCCCCC(=O)N(CCCC/C=C\CCCCCCC1=NOS(=O)N1)C(C)C (stereo not shown) [Compound 26]		blood pressure ([1]; 2 mg/d i.p. osmotic pump, after two weeks of treatment, vehicle 141±3.0): 150±5.0 mmHg
CCCCCCC(=O)N(CCCCCOc1cccc2sc(NC(=O)C(C)(C)C)nc12)C(C)C [EET-B, N-Isopropyl-N-(5-(2-pivalamidobenzo[d]thiazol-4-yloxy)pentyl)heptanamide]		kidney TBARS formation ([2]; 10 mg/kg/d p.o., vehicle 16±2): 8 ± 1 µmol/g; reductions in renal mRNA expressions of inflammatory markers (TNF-α, IL-6, interleukin-1β) ([2]; cisplatin-administered rats): 40-60%; proteinuria ([2]; cisplatin-administered rats, vehicle 53±5): 32 ± 3 mg/day; reductions in the elevated levels of serum creatinine and BUN ([2]; five days after cisplatin, vs. vehicle): 30-50%; NAG ([2]; urinary, 10 mg/kg/d p.o., vehicle 3.0±0.6): 0.6±0.2 U/d; KIM-1 ([2]; urinary, 10 mg/kg/d p.o., vehicle 296±94): 57 ± 13 ng/day
CCCCCNC(=O)NCCCC/C=C\CCCCCCS(=O)(=O)[O-].[Na+] [Compound 11]	63%	
CCCCCNC(=O)NCCCCCOc1cccc2sc(NC(C)=O)nc12 [Compound 31, N-(4-(5-(3-n-Pentylureido)pentyloxy)benzo[d]thiazol-2-yl)acetamide]	73%	
CCCCCNC(=O)NCCCC/C=C\CCCCCCC(=O)NS(=O)(=O)c1ccccc1 [Compound 8, 13-(3-n-Pentylureido)-N-(phenylsulfonyl)tridec-8(Z)-enamide]	73%	
CCCCCNC(=O)NCCCC/C=C\CCCCCCC(=O)N[C@@H](CC(=O)O)C(=O)O (stereo in doubt) [Compound 7, (S)-2-(13-(3-n-Pentylureido)tridec-8(Z)-enamido)succinic acid]	91%	
